Measurements taken from patent publication US20230102520A1, “INHIBITORS OF LOW MOLECULAR WEIGHT PROTEIN TYROSINE PHOSPHATASE (LMPTP) AND USES THEREOF” (Sanford Burnham Prebys Medical Discovery Institute, priority 2019, published 2023).

biological target: T1, human LMPTP-A (Homo sapiens, UniProt P24666); assay: Enzyme Assay of Inhibition of LMPTP-A; assay type: biochemical; details: phosphatase assay, OMFP or pNPP substrate, 50 mM Bis-Tris pH 6.0, 37° C.
T1 sequence (P24666 1-158): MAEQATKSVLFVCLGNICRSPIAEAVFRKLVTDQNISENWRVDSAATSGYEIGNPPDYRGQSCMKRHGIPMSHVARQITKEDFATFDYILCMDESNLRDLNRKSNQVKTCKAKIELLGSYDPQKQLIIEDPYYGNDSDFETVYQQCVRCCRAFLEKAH
Method: Example B-1: Enzyme Assay of Inhibition of LMPTP-A
Phosphatase assays were performed in buffer containing 50 mM Bis-Tris, pH 6.0, 1 mM DTT and 0.01% Triton X-100 at 37° C. For assays conducted with 3-O-methylfluorescein phosphate (OMFP) as substrate, fluorescence was monitored continuously at λex=485 and λem=525 nm. For assays conducted with para-nitrophenylphosphate (pNPP) as substrate, the reaction was stopped by addition of 2× reaction volume of 1 M NaOH, and absorbance was measured at 405 nm. IC50 values of compounds disclosed herein were determined from plots of inhibitor concentration versus percentage of enzyme activity. For inhibitor selectivity assays, each PTP was incubated with either 0.4 mM OMFP or 5 mM pNPP in the presence of 40 μM compound or DMSO. […] For the inhibitor reversibility assay, 50 nM human LMPTP-A was pre-incubated with 10 μM of compound disclosed herein or DMSO for 5 min. The enzyme was diluted 100× in phosphatase assay buffer containing 0.4 mM OMFP and fluorescence was measured at the indicated time points.

`Cc1ccccc1-c1nc2c(N)ncn(Cc3c(Br)ccnc3Cl)c-2n1` [3-[(4-bromo-2-chloro(3-pyridyl))methyl]-8-(2-methylphenyl)-3-hydropurine-6-ylamine] and `Cc1ccccc1-c1nc2c(N)ncn(Cc3c(Cl)ccnc3F)c-2n1` [3-[(4-chloro-2-fluoro(3-pyridyl))methyl]-8-(2-methylphenyl)-3-hydropurine-6-ylamine] cannot be ordered by IC50: under 1 µM for the first, under 1 µM for the second.

`Nc1ncn(Cc2c(Br)ccnc2Cl)c2nc(-c3ccccc3)nc1-2` [3-[(4-bromo-2-chloro(3-pyridyl))methyl]-8-phenyl-3-hydropurine-6-ylamine] and `Nc1ncn(Cc2c(Cl)ccnc2F)c2nc(-c3ccccc3)nc1-2` [3-[(4-chloro-2-fluoro(3-pyridyl))methyl]-8-phenyl-3-hydropurine-6-ylamine] cannot be ordered by IC50: under 1 µM for the first, under 1 µM for the second.

First: COc1nccc(I)c1Cn1cnc(N)c2nc(-c3ccccc3)nc1-2 [3-[(4-iodo-2-methoxy(3-pyridyl))methyl]-8-phenyl-3-hydropurine-6-ylamine]
Second: Cc1ncsc1Cn1cnc(N)c2nc(-c3ccccc3)nc1-2 [3-[(4-methyl(1,3-thiazol-5-yl))methyl]-8-phenyl-3-hydropurine-6-ylamine]
The IC50 of the first is lower: under 1 µM for the first, 1 to 20 µM for the second. The first is the more potent here.

`Cc1ccccc1-c1nc2c(N)ncn(Cc3scnc3C)c-2n1` [3-[(4-methyl(1,3-thiazol-5-yl))methyl]-8-(2-methylphenyl)-3-hydropurine-6-ylamine] and `Cc1ccccc1-c1nc2c(N)ncn(Cc3cncc(Cl)c3)c-2n1` [3-[(5-chloro(3-pyridyl))methyl]-8-(2-methylphenyl)-3-hydropurine-6-ylamine] cannot be ordered by IC50: under 1 µM for the first, under 1 µM for the second.

`COc1cccc(OC)c1-c1nc2c(N)ncn(Cc3c(Cl)cnc(Cl)c3Cl)c-2n1` [8-(2,6-dimethoxyphenyl)-3-[(2,3,5-trichloro(4-pyridyl))methyl]-3-hydropurine-6-ylamine] and `COc1cccc(OC)c1-c1nc2c(N)ncn(Cc3c(Cl)ncc(Cl)c3Cl)c-2n1` [8-(2,6-dimethoxyphenyl)-3-[(2,4,5-trichloro(3-pyridyl))methyl]-3-hydropurine-6-ylamine] cannot be ordered by IC50: under 1 µM for the first, under 1 µM for the second.

`Cc1ccccc1-c1nc2c(N)ncn(Cc3c(Cl)cnc(Cl)c3Cl)c-2n1` [8-(2-methylphenyl)-3-[(2,3,5-trichloro(4-pyridyl))methyl]-3-hydropurine-6-ylamine] and `Nc1ncn(Cc2c(Cl)cncc2Cl)c2nc(-c3nc4ccccc4[nH]3)nc1-2` [8-benzimidazol-2-yl-3-[(3,5-dichloro(4-pyridyl))methyl]-3-hydropurine-6-ylamine] cannot be ordered by IC50: under 1 µM for the first, under 1 µM for the second.

`Nc1ncn(Cc2c(Cl)cncc2Cl)c2nc(-c3ccc4c(c3)OCO4)nc1-2` [8-(2H-benzo[d]1,3-dioxolen-5-yl)-3-[(3,5-dichloro(4-pyridyl))methyl]-3-hydropurine-6-ylamine] and `Nc1ncn(Cc2c(Cl)cncc2Cl)c2nc(-c3ccc4ccoc4c3)nc1-2` [8-benzo[3,4-b]furan-6-yl-3-[(3,5-dichloro(4-pyridyl))methyl]-3-hydropurine-6-ylamine] cannot be ordered by IC50: under 1 µM for the first, under 1 µM for the second.

First: Nc1ccncc1-c1nc2c(N)ncn(Cc3c(Cl)cncc3Cl)c-2n1 [8-(4-amino(3-pyridyl))-3-[(3,5-dichloro(4-pyridyl))methyl]-3-hydropurine-6-ylamine]
Second: Nc1ncn(Cc2c(Cl)cncc2Cl)c2nc(-c3ccc4[nH]cnc4c3)nc1-2 [8-benzimidazol-5-yl-3-[(3,5-dichloro(4-pyridyl))methyl]-3-hydropurine-6-ylamine]
The IC50 of the first is higher: 1 to 20 µM for the first, under 1 µM for the second. The second is the more potent here.

`Nc1ncn(Cc2c(Cl)ccnc2Cl)c2nc(C3C4CC5CC(C4)CC3C5)nc1-2` (stereo not shown) [8-adamantan-2-yl-3-[(2,4-dichloro(3-pyridyl))methyl]-3-hydropurine-6-ylamine] and `Nc1ncn(Cc2c(Cl)cncc2Cl)c2nc(C3C4CC5CC(C4)CC3C5)nc1-2` (stereo not shown) [8-adamantan-2-yl-3-[(3,5-dichloro(4-pyridyl))methyl]-3-hydropurine-6-ylamine] cannot be ordered by IC50: under 1 µM for the first, under 1 µM for the second.

`Nc1ncn(Cc2c(Cl)cncc2Cl)c2nc(-c3ccc4occc4c3)nc1-2` [8-benzo[b]furan-5-yl-3-[(3,5-dichloro(4-pyridyl))methyl]-3-hydropurine-6-ylamine] and `Nc1ncn(Cc2c(Cl)cncc2Cl)c2nc(-c3ccc4sccc4c3)nc1-2` [8-benzo[b]thiophen-5-yl-3-[(3,5-dichloro(4-pyridyl))methyl]-3-hydropurine-6-ylamine] cannot be ordered by IC50: under 1 µM for the first, under 1 µM for the second.

First: Nc1ncn(Cc2c(Cl)ccnc2Cl)c2nc(-c3ccc4ncsc4c3)nc1-2 [8-benzothiazol-6-yl-3-[(2,4-dichloro(3-pyridyl))methyl]-3-hydropurine-6-ylamine]
Second: CCN(CC)Cc1nc2c(N)ncn(Cc3c(Cl)cncc3Cl)c-2n1 [({6-amino-3-[(3,5-dichloro(4-pyridyl))methyl](3-hydropurin-8-yl)}methyl)diethylamine]
The IC50 of the first is lower: under 1 µM for the first, 1 to 20 µM for the second.
